Data reported in patent US11453671B2, “Pyrazolopyrimidine inhibitors of JAK kinases and uses thereof” (Genentech, Inc., priority 2020, dated 2022).
Read-outs that look alike come from different tables or passages of the source.

Columns and labels:
[1] = test system: JAK2 pathway: P-STAT5 in TF-1 human erythroleukemia cells + EPO; assay: P-STAT5 TF-1+Erythropoietin (EPO) assay; format: cell-based; settings: EPO stimulation, read-out: Cellular JAK2 PSTAT5 TF-l + EPO IC50
Experimental: (§1) TF-1 human erythroleukemia cells (ATCC®; Manassas, Va.; Catalog No. CRL-2003™) were grown in Roswell Park Memorial Institute (RPMI) medium supplemented with 10% heat-inactivated fetal bovine serum (FBS), 2 ng/mL granulocyte-macrophage colony-stimulating factor, 1×non-essential amino acids (NEAA), and 1 mM sodium pyruvate. The day before the assay, the cultures were transferred to Opti-MEM™, 1×NEAA, 1 mM sodium pyruvate, and 0.5% charcoal-stripped FBS (starve medium). Inhibitor stock solutions (5 mM in DMSO) were serially diluted 1:2 in DMSO to generate a 10-point concentration titration (at 500×test concentration), which was further diluted by a 50-fold dilution in Assay Medium (RPMI containing 1×NEAA and 1 mM sodium pyruvate) to generate a 10×concentration titration (in 2% DMSO). The cells (300,000 cells/well in 35 μL of Assay Medium) were seeded in 384-well Greiner plates. Diluted inhibitor at 10×concentration (5 μL) was added to the cells and the plates were incubated for 30 minutes at 37° C. in a humidified incubator. Cells were stimulated with the human recombinant cytokine at the respective EC90 concentrations, as previously determined for each individual lot. For the phosphorylated signal transducer and activator of transcription 6 (P-STAT6) TF-1+Interleukin-13 (IL-13) assay, 10 μL of 250 ng/mL IL-13 (R&D Systems; Minneapolis, Minn.) was added to the cells, which were then incubated for 10 minutes at 37° C. For the P-STAT5 TF-1+Erythropoietin (EPO) assay, 10 μL of 110 IU/mL EPO (Gibco Life Technologies, Catalog No. PHC2054) was added to the cells, which were then incubated for 30 min at 37° C. For both assays, the incubation was followed by addition to the cells of 5 μL of ice-cold 10× cell lysis buffer (Cell Signaling Technologies; Danvers, Mass.; Catalog No. 9803S) containing 1 mM phenylmethylsulfonyl fluoride (PMSF). Assay plates were frozen at −80° C. for a minimum of 1 horn. In the IL-13 assay, P-STAT6 was measured by coating goat anti-rabbit (GAR) plates (Meso Scale Discovery [MSD]; Rockville, Md.; Catalog No. MSD L21RA-1) with rabbit anti-human total STAT6 antibody (Cell Signaling Technologies; Catalog No. 9362S), incubating the cell lysates in the coated plates overnight at 4° C., and then detecting with mouse anti-P-STAT6 (Tyr641) Clone 16E12 antibody (MilliporeSigma; Burlington, Mass.; Catalog No. 05-590, custom labeled by MSD with SULFO-tag) using standard MSD plate processing, washing, and detection protocols. In the EPO assay, P-STAT5 was detected using the phospho-STAT5a,b Whole Cell Lysate Kit (MSD; Catalog No. K150IGD-1). The electrochemiluminescence (ECL) signal of wells was read on the MESO SECTOR S600 (MSD) reader.

[2] = test system: JAK1: IL-13-stimulated STAT6 phosphorylation in BEAS-2B cells; assay: P-STAT6 BEAS-2B+IL-13 Cell Assay; format: cell-based, human; settings: IL-13 stimulation, read-out: Cellular JAK1 PSTAT6 BEAS2B + IL13 IC50
Procedure, shortened: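 BEAS-2B cells in BEGM preincubated 1 h at 37 °C with 10-point, 1:2 compound dilutions, then stimulated 15 min with IL-13 (250 ng/mL stock). Lysate pSTAT6 (Tyr641) captured on total-STAT6 antibody and read by MSD electrochemiluminescence; IC50 from four-parameter logistic fit.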

[3] = molecular target: Recombinant human JAK2 kinase domain protein (Residues 812-1132) (Homo sapiens, UniProt O60674); assay: JAK2 biochemical assay (microfluidic mobility shift, peptide phosphorylation); settings: Enzyme JAK2 Ki (nM), 25 μM ATP, 0.2 nM total JAK2
[4] = molecular target: T1, recombinant human JAK1 kinase domain protein (Residues 854-1154) (Homo sapiens, UniProt P23458); assay: JAK1 biochemical assay (microfluidic mobility shift, peptide phosphorylation); settings: 25 μM ATP, 1 nM total JAK1; read-out: Enzyme JAK1 Ki
T1 construct: human JAK1 kinase domain protein (Residues 854-1154); purchased Proteros Biostructures GmbH (Martinsried, Germany); host or cells: insect cells
Text: JAK1 and JAK2 Biochemical Assays

[5] = test system: JAK1 pathway: P-STAT6 in TF-1 human erythroleukemia cells + IL-13; assay: P-STAT6 TF-1+Interleukin-13 (IL-13) assay; format: cell-based; settings: Homo sapiens, TF-1, TF-1 cells, IL-13 stimulation; read-out: Cellular JAK1 PSTAT6 TF-1 + IL13 IC50
Experimental: as §1

[6] = Mouse lung tissue binding (equilibrium dialysis, RED); format: in vitro ADME; settings: for Mouse LTB %: mouse lung tissue binding, % bound (Table 3); for Lung tissue binding, %: Table 5, sulfone-sulfide analog pairs
Experimental: Mouse lung tissue binding. A high bound fraction or percentage of JAK1/JAK2 inhibitors to lung tissue may be undesirable since it can reduce the amount of free drug available to inhibit JAK1 or JAK2.
(a) Tissue binding experiments were performed in triplicate (n=3) using a Single-Use RED Plate by following the standard protocol. Initially, individual drugs were spiked to tissue homogenates (pH 7.4) to achieve a final concentration of 1 μM, and then 300 μL of drug-tissue homogenate mixtures were transferred to the donor wells of the RED plate which was pre-loaded with 500 μL phosphate buffer saline (133 mM) on the receiver wells. The RED plate was sealed with a gas permeable membrane and placed in a shaking incubator (450 rpm, VWR Symphony™) for 6 hr at 37° C. with 5% CO2. At the end of incubation, aliquots of 30 μL samples were taken out of the RED device and matrix equalized with an equal volume of tissue homogenates or buffer, and resulting samples were then immediately quenched with ice cold acetonitrile (sample:acetonitrile 1:4) containing either propranolol or labetalol as an internal standard. After shaking for 15 min at 500 rpm on a Thermo Scientific Compact Digital MicroPlate Shaker, all samples were then subjected to centrifugation at 3700 rpm for 15 min (Beckman Coulter Allegra X 12R) to remove plasma protein. Subsequently, supernatants were collected and then diluted with an equal volume of water prior to LC-MS/MS analysis.
(b) In an alternate procedure, the extent of lung tissue binding of test compound to mouse lung homogenate may also be determined by equilibrium dialysis using Pierce RED (rapid equilibrium dialysis) devices (Fisher Scientific 89811 & 89809). A 10 mM solution of compound in DMSO was prepared and diluted to 1 mM with DMSO. An aliquot of this 1 mM (4 μL) was added into lung homogenate (dilution factor of 1:9, lung tissue:potassium phosphate buffer (0.05 M, pH 7.4)) to give a final compound incubation concentration of 5 μM with solvent accounting for 0.5% (v/v) of the final incubation volume.
For each assay, the percentage lung tissue bound was determined in triplicate. Lung homogenate (200 μL) was loaded into one side of a RED device insert, in triplicate, and 350 μL of potassium phosphate buffer was loaded into the other side. The RED devices were sealed and incubated for 4 hours at ca. 37° C. on an orbital shaker (˜150 rpm).
Following incubation, an aliquot of lung homogenate (8 μL) and an aliquot of dialysate (72 μL) were matrix matched (lung homogenate with 72 μL phosphate buffer, dialysate with 8 μL lung homogenate) ahead of analysis. Protein was precipitated from the samples with the addition of 160 μL of acetonitrile containing internal standard. The same matrix matching and protein precipitation procedure was performed on lung homogenate aliquots sampled at the start of the experiment (t=0 min samples), for the assessment of the mass balance. The quenched samples were centrifuged (4000 rpm, 30 min, 4° C.) and the resultant supernatant diluted with water (3:1 (v/v), supernatant: water) and the samples analysed for parent compound by liquid chromatography mass spectrometry assay.
The unbound fraction (fu) in lung homogenate was determined from the ratio of the dialysate to homogenate peak area, corrected to take into account the lung homogenate dilution (D) to enable an estimate of whole lung tissue binding using the following equations: Undiluted fu=(1/D)/[((1/Apparent fu)−1)+(1/D)] Corrected fraction bound (%)=(1-undiluted fu)*100

Chain of Recombinant human JAK2 kinase domain protein (Residues 812-1132) (O60674 812-1132): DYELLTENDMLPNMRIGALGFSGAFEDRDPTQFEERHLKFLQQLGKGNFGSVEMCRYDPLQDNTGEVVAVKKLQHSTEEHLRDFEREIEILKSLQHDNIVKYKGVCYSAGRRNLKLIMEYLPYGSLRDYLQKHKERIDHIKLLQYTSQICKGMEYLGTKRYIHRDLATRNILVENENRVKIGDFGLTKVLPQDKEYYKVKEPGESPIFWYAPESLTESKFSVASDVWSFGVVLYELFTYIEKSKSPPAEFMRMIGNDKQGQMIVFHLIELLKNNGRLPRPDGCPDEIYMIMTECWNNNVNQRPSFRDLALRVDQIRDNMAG
T1 sequence (P23458 854-1154): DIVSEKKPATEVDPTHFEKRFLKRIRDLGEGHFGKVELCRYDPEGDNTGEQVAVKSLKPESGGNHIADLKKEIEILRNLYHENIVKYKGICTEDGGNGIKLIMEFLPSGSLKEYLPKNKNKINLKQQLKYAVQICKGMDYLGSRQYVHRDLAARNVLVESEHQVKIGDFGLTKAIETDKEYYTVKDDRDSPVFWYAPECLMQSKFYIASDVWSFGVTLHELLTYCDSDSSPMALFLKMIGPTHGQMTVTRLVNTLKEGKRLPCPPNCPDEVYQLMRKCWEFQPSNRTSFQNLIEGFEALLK

Row | SMILES | IC50 ([1]; Homo sapiens, TF-1, TF-1 cells) [nM] | IC50 ([2]; Homo sapiens, BEAS-2B) [nM] | Ki [3] [nM] | Ki [4] [nM] | IC50 [5] [nM] | IC50 ([1]; TF-1 cells) [nM] | Mouse LTB % [6] [%] | IC50 [2] [nM] | Lung tissue binding, % [6] [%]
1 | CN1CCC[C@@H]1Cn1cc(NC(=O)c2cnn3cccnc23)c(-c2cc(S(=O)(=O)C3CC3)ccc2OC(F)F)n1 (racemic) [Example 60, N-[3-[5-cyclopropylsulfonyl-2-(difluoromethoxy)phenyl]-1-[[rac-(2R)-1-methylpyrrolidin-2-yl]methyl]pyrazol-4-yl]pyrazolo[1,5-a]pyrimidine-3-carboxamide] | 170 | 44 | 2.5 | 1.1 | 24 | – | – | – | –
2 | Cn1cc(NC(=O)c2cnn3cccnc23)c(-c2cc(S(=O)(=O)C3CCCNC3)ccc2OC(F)F)n1 (single isomer, unassigned) [Example 36, N-[3-[2-(difluoromethoxy)-5-(3-piperidylsulfonyl)phenyl]-1-methyl-pyrazol-4-yl]pyrazolo[1,5-a]pyrimidine-3-carboxamide] | – | – | 1.1 | 1.8 | 71 | 120 | – | – | –
3 | CC(O)C(C)S(=O)(=O)c1ccc(OC(F)F)c(-c2nn(C)cc2NC(=O)c2cnn3cccnc23)c1 (single isomer, unassigned) [Example 69, N-[3-[2-(difluoromethoxy)-5-(2-hydroxy-1-methyl-propyl)sulfonyl-phenyl]-1-methyl-pyrazol-4-yl]pyrazolo[1,5-a]pyrimidine-3-carboxamide] | – | – | – | – | – | – | 78.4 | 77 | –
4 | CC(C)S(=O)(=O)c1ccc(OC(F)F)c(-c2nn(C)cc2NC(=O)c2cnn3cccnc23)c1 [Example 1, N-[3-[2-(difluoromethoxy)-5-isopropylsulfonyl-phenyl]-1-methyl-pyrazol-4-yl]pyrazolo[1,5-a]pyrimidine-3-carboxamide] | 12 | 31 | 0.25 | 0.56 | 6.3 | – | – | – | –
5 | Cn1cc(NC(=O)c2cnn3cccnc23)c(-c2cc(S(=O)(=O)c3cccnc3)ccc2OC(F)F)n1 [Example 42, N-[3-[2-(difluoromethoxy)-5-(3-pyridylsulfonyl)phenyl]-1-methyl-pyrazol-4-yl]pyrazolo[1,5-a]pyrimidine-3-carboxamide] | 21 | 30 | 0.24 | 0.42 | 2.6 | – | – | – | –
6 | CNCCn1cc(S(=O)(=O)c2ccc(OC(F)F)c(-c3nn(C)cc3NC(=O)c3cnn4cccnc34)c2)cn1 [Example 48, N-[3-[2-(difluoromethoxy)-5-[1-[2-(methylamino)ethyl]pyrazol-4-yl]sulfonyl-phenyl]-1-methyl-pyrazol-4-yl]pyrazolo[1,5-a]pyrimidine-3-carboxamide] | – | 130 | 0.39 | 0.52 | – | – | 91.3 | – | –
7 | CN(C)CCn1cc(NC(=O)c2cnn3cccnc23)c(-c2cc(S(=O)(=O)C3CC3)ccc2OC(F)F)n1 [Example 50, N-[3-[5-cyclopropylsulfonyl-2-(difluoromethoxy)phenyl]-1-[2-(dimethylamino)ethyl]pyrazol-4-yl]pyrazolo[1,5-a]pyrimidine-3-carboxamide] | 160 | 50 | 1.9 | 1.7 | 27 | – | – | – | –
8 | C[C@@H](Cn1cc(S(=O)(=O)c2ccc(OC(F)F)c(-c3nn(C)cc3NC(=O)c3cnn4cccnc34)c2)cn1)N(C)C [Example 58, N-[3-[2-(difluoromethoxy)-5-[1-[(2S)-2-(dimethylamino)propyl]pyrazol-4-yl]sulfonyl-phenyl]-1-methyl-pyrazol-4-yl]pyrazolo[1,5-a]pyrimidine-3-carboxamide] | 32 | 40 | 0.86 | 0.89 | 24 | – | – | – | –
9 | CN1CC(n2cc(S(=O)(=O)c3ccc(OC(F)F)c(-c4nn(C)cc4NC(=O)c4cnn5cccnc45)c3)cn2)C1 [Example 61, N-[3-[2-(difluoromethoxy)-5-[1-(1-methylazetidin-3-yl)pyrazol-4-yl]sulfonyl-phenyl]-1-methyl-pyrazol-4-yl]pyrazolo[1,5-a]pyrimidine-3-carboxamide] | 200 | 34 | 0.77 | 0.81 | 190 | – | – | – | –
10 | Cn1cc(NC(=O)c2cnn3cccnc23)c(-c2cc(SC3COC3)ccc2OC(F)F)n1 [reference compound] | – | – | – | – | – | – | – | – | 97.4
11 | CSc1ccc(OC(F)F)c(-c2nn(CC#N)cc2NC(=O)c2cnn3cccnc23)c1 [reference compound] | – | – | – | – | – | – | – | – | 96.9
12 | Cn1cc(Sc2ccc(OC(F)F)c(-c3nn(C)cc3NC(=O)c3cnn4cccnc34)c2)cn1 [reference compound] | – | – | – | – | – | – | – | – | 97
